Source: US20260048155A1, “BIOCOMPATIBLE PARAHYDROGEN HYPERPOLARIZED SOLUTIONS BY PRECIPITATION AND RE-DISSOLUTION” (North Carolina State University, priority 2022, published 2026)

What was measured:
[1] = Precipitation and syringe/cotton filtering of HP pyruvate at 10 mT; assay type: physicochemical; conditions: 4.5 mL EtAc, filter at 10 mT, 1 mL H2O, 90-100 s procedure, repeated three times
Experimental: As described above, filtering of non-hyperpolarized pyruvate from the precipitated solutions was tested using in-line syringe filters (FIGS. 9A-9C), and the obtained solutions of supernatant and dissolved microcrystals were analyzed with high resolution NMR. Cotton filters were also used as a performance metric for the syringe filters. Each sample was SABRE-SHEATH-polarized as described previously for three times to quantify the mean base-line hyperpolarization before precipitation (for this batch of samples, P13C=10±1% in CH3OH). Because a short lifetime of ^13C magnetization was expected at ultralow field, the precipitation procedure was performed at an elevated field of 10 mT (see setup described in section 5). At this field, proton and ^13C Zeeman levels are separated by >350 kHz, i.e., an order of magnitude greater than the dipolar spin-spin couplings present in the solid state. To this end, after the hyperpolarization procedure was completed, the sample was rapidly removed from the 0.30 μT field, depressurized, and filled into a 10-mL plastic syringe held at a 10 mT field mounted to a Luer-locked filter. After depressurization (˜10-15 s after hyperpolarization) 4.5 mL EtAc was added, the solution was stirred manually, and the filtration was started, taking a total of about 1 min following hyperpolarization. […]

[2] = Lifetime (13C T1) of polarization in precipitated and aqueous samples; assay type: physicochemical; conditions: for T1 in the aqueous phase after Re-D SABRE: N=2
Experimental: To investigate the impact of precipitate relaxation in variable magnetic fields during the dissolution process, the Re-D SABRE experiment was repeated, omitting the addition of water after precipitation (i.e., the decay of ^13C HP signal in the dissolved phase of the precipitated samples was measured). […] For (iii), P13C was still much lower compared to the sample that rested at the 1.4 T magnet (setup iv), i.e., P13C=0.08±0.02% and P13C=3.4±0.9%, respectively—this signal is entirely derived from the remaining dissolved pyruvate in solution (2.3±0.6 mM in the 500 μL sample of EtAc and CH3OH, FIG. 17) not from the precipitated micro-crystalline phase. […] This observation is important because it means the Re-D SABRE process can be successfully performed at storage fields as low as 0.3 T. The rapid ^13C T1 of HP [1-^13C]pyruvate in the EtAc fraction at Earth's field, estimated to be <1.3 s, may be caused by the high catalyst: substrate ratio in the EtAc.
HP signals from the sample before or after re-dissolution were measured as a function of an additional delay td (ranging from 0 to 23 s; t=tprec+td), during which P13C was allowed to decay. At the end of td, the signal was detected either immediately (green circles, FIG. 6D, sampling the decay rate of the residual dissolved-phase pyruvate) or after the dissolution with D2O (squares, FIG. 6D, sampling the decay rate of the entire pyruvate (precipitated and dissolved) pool). Assuming a mono-exponential decay, the apparent ^13C T1 was 7.0±0.4 s or 5.3±0.2 s, respectively. […] In sharp contrast, T1 values in the aqueous phase measured after the Re-D SABRE process were 41.6±0.3 s in H2O and 102±1.3 s in D2O, FIG. 6E, using a series of pulse-detect NMR experiments with low flip angle of 9° (N=2).

With `CC(=O)[13C](=O)O` [[1-^13C]pyruvate] the “HP 13C signal after precipitation and filtering” value [1] was “no HP ^13C signal was observed”, the “T1 in the aqueous phase after Re-D SABRE” value ([2]; D2O, 1.4 T) was 102 ± 1.3 s and the “13C T1 in the EtAc fraction” value ([2]; Earth's field, estimated) was less than 1.3 s. The “T1 in the aqueous phase after Re-D SABRE” value ([2]; H2O, 1.4 T) was 41.6 ± 0.3 s, the “apparent 13C T1, entire pyruvate (precipitated and dissolved) pool” value ([2]; precipitated sample, 1.4 T, detected after dissolution with D2O) was 5.3 ± 0.2 s and the “apparent 13C T1, residual dissolved-phase pyruvate” value ([2]; precipitated sample, 1.4 T, detected immediately, mono-exponential) was 7.0 ± 0.4 s.
